Results: patent US12655114B2, “Ionizable lipid compounds and lipid nanoparticle compositions” (SunVax mRNA Therapeutics Inc., priority 2022, dated 2026)

test system: 293T, C2C12 or MC38 cells; test: SamRNA-GFP transfection efficiency of LNPs by flow cytometry; assay type: cell-based; conditions: LNP-SamRNA-GFP formulated with the lipid; FIGS. 4-6, 8-10
Description: The delivery system used to deliver the GFP-mRNA transfect are LNPs formulated using 12 individual ionizable lipids synthesized by three-component reactions. To generate the LNP encapsulated self-amplifying mRNA, the ionizable lipids of the present disclosure were dissolved in ethanol and directly added into an ethanol solution containing DOPE, cholesterol and DMG-PEG2000 at predetermined molar ratio. Self-amplifying mRNA encoding GFP sequences aqueous solution was mixed and the LNP mixture (100 ng mRNA) was added to a 96-well plate pre-seeded with MC38, C2C12 or 293T cells. The cells were incubated at 5% CO2 and 37° C. overnight. The GFP mRNA transfection efficiency was measured by flow cytometry.
E6, an ionizable lipid of the disclosure, was formulated into LNPs with 1,2-Dioleoyl-sn-glycero-3-phosphoethanolamine (DOPE), cholesterol (Chol), methoxypolyethylene glycol (DMG-PEG2000) with a mole ratio of 50/10/38.5/1.5 (ionizable lipid/DOPE/Chol/DMG-PEG2000) encapsulated self-amplifying mRNA or DNA encoding with reporter genes either green fluorescent protein (samRNA-GFP or DNA-CMV-EGFP) or firefly Luciferase (samRNA-LUC). Formulations containing 100 ng of self-amplifying mRNA were incubated to a well of 96-well plate with 60-70% confluent of HEK293, or C2C12, or MC38 cells (FIGS. 10, 23). The transfection efficiency was determined by flow cytometry for detection of GFP, or plate reader for detection of luciferase. LNP formulated using FDA approved ionizable lipid MC3 was used as a control (FIG. 10).
(§1) The LNPs containing SamRNA-GFP (or SamRNA-LUC, 100 ng/well) were added into 96-well plate which was pre-seeded with 293T, C2C12 or MC38 cells. After 24 hours incubation at 37° C. and 5% CO2, the luciferase SamRNA transfection efficiency was measured by plate reader (Perkin Elmer Envision 2104). The GFP SamRNA transfection efficiency was measured by flow cytometry (BD FACSymphony™ A5 SE Cell Analyzer).

SMILES | delivery of mRNA-GFP compared with FDA approved ionizable lipid MC3
CCCCCCCCCN(CCCCCCCCC)CCC(=O)N1CN(C(=O)CCN(CCCCCCCCC)CCCCCCCCC)CN(C(=O)CCN(CCCCCCCCC)CCCCCCCCC)C1 [E2, 1,1′,1″-(1,3,5-triazinane-1,3,5-triyl)tris(3-(dinonylamino)propan-1-one)] | more effectively deliver mRNA-GFP

test system: 293T cells; test: SamRNA-LUC transfection efficiency of LNPs by plate reader (luminescence); assay type: cell-based; conditions: LNP-SamRNA-Luc formulated with the lipid, incubated overnight, FIG. 11
Description: as §1

SMILES | bioluminescence signals compared with MC3-LNP-SamRNA-Luc
CCCCCCCCCCCCC(=O)N(C(CCCCCCC)CCCCCCC)C(C(=O)NCC(=O)OCC)C1CCN(CC)CC1 (centres unmarked) [P1C1, Ethyl (2-(1-ethylpiperidin-4-yl)-2-(N-(pentadecan-8-yl)tridecanamido)acetyl)glycinate] | stronger bioluminescence signals than MC3-LNP-SamRNA-Luc
CCCCCCCCCCCCCC(=O)N(CC(CCCCCCCC)CCCCCCCCCC)C(C(=O)NCC(=O)OCC)C1CCN(CC)CC1 (centres unmarked) [P1D4, Ethyl (2-(1-ethylpiperidin-4-yl)-2-(N-(2-octyldodecyl)tetradecanamido)acetyl)glycinate] | stronger bioluminescence signals than MC3-LNP-SamRNA-Luc
CCCCCCCCCCCCCCCC(=O)N(C(CCCCCCCC)CCCCCCCC)C(C(=O)NC1=CCCCC1)C1CCN(CC)CC1 (centres unmarked) [P6A2, N-(2-(cyclohex-1-en-1-ylamino)-1-(1-ethylpiperidin-4-yl)-2-oxoethyl)-N-(heptadecan-9-yl)palmitamide] | stronger bioluminescence signals than MC3-LNP-SamRNA-Luc
CCCCCCCCC(CCCCCCCC)N(C(=O)CCCCCCC)C(C(=O)NCCCC)C1CCN(CC)CC1 (centres unmarked) [P14A2, N-(2-(butylamino)-1-(1-ethylpiperidin-4-yl)-2-oxoethyl)-N-(heptadecan-9-yl)octanamide] | stronger bioluminescence signals than MC3-LNP-SamRNA-Luc
CCCCCCCCCCC(=O)N(C(CCCCCCC)CCCCCCC)C(C(=O)NCCCC)C1CCN(CC)CC1 (centres unmarked) [P16B1, N-(2-(butylamino)-1-(1-ethylpiperidin-4-yl)-2-oxoethyl)-N-(pentadecan-8-yl)undecanamide] | stronger bioluminescence signals than MC3-LNP-SamRNA-Luc
CCCCCCCCCCCCCC(=O)N(CC(CCCCCCCC)CCCCCCCCCC)C(C(=O)NC1CCCCC1)C1CCN(CC)CC1 (centres unmarked) [P26D4, N-(2-(cyclohexylamino)-1-(1-ethylpiperidin-4-yl)-2-oxoethyl)-N-(2-octyldodecyl) tetradecanamide] | stronger bioluminescence signals than MC3-LNP-SamRNA-Luc
CCCCCCCCCCCCCCCC(=O)N(C(CCCCCCC)CCCCCCC)C(C(=O)NC1CCCCC1)C1CCN(CC)CC1 (centres unmarked) [P30A1, N-(2-(cyclohexylamino)-1-(1-ethylpiperidin-4-yl)-2-oxoethyl)-N-(pentadecan-8-yl)palmitamide] | stronger bioluminescence signals than MC3-LNP-SamRNA-Luc
CCCCCCCCCCCCCCCCC(=O)N(C(CCCCCCC)CCCCCCC)C(CC1CCN(C)CC1)C(=O)NC1CCCCC1 (centres unmarked) [P30B7, N-(1-(cyclohexylamino)-3-(1-methylpiperidin-4-yl)-1-oxopropan-2-yl)-N-(pentadecan-8-yl)heptadecanamide] | stronger bioluminescence signals than MC3-LNP-SamRNA-Luc
CCCCCCCCCCCCCCCCCC(=O)N(C(CCCCCCC)CCCCCCC)C(CC1CCN(C)CC1)C(=O)NC1CCCCC1 (centres unmarked) [P30C7, N-(1-(cyclohexylamino)-3-(1-methylpiperidin-4-yl)-1-oxopropan-2-yl)-N-(pentadecan-8-yl)stearamide] | stronger bioluminescence signals than MC3-LNP-SamRNA-Luc
CCCCCCCCCCCCCC(=O)N(C(CCCCCCC)CCCCCCC)C(C(=O)NC1CCCCCC1)C1CCN(CC)CC1 (centres unmarked) [P38D1, N-(2-(cycloheptylamino)-1-(1-ethylpiperidin-4-yl)-2-oxoethyl)-N-(pentadecan-8-yl)tetradecanamide] | stronger bioluminescence signals than MC3-LNP-SamRNA-Luc
CCCCCCCCCCCCCC(=O)N(C(CCCCCCC)CCCCCCC)C(CC1CCN(C)CC1)C(=O)NC1CCCCCC1 (centres unmarked) [P38D7, N-(1-(cycloheptylamino)-3-(1-methylpiperidin-4-yl)-1-oxopropan-2-yl)-N-(pentadecan-8-yl)tetradecanamide] | stronger bioluminescence signals than MC3-LNP-SamRNA-Luc
CCCCCCCCCCCCCC(=O)N(C(CCCCCCCC)CCCCCCCC)C(CC1CCN(C)CC1)C(=O)NC1CCCCCC1 (centres unmarked) [P38D8, N-(1-(cycloheptylamino)-3-(1-methylpiperidin-4-yl)-1-oxopropan-2-yl)-N-(heptadecan-9-yl)tetradecanamide] | stronger bioluminescence signals than MC3-LNP-SamRNA-Luc
CCCCCCCCCCC(=O)N(CC(CCCCCCCC)CCCCCCCCCC)C(CC1CCN(C)CC1)C(=O)NC1CCCCCC1 (centres unmarked) [P40B10, N-(1-(cycloheptylamino)-3-(1-methylpiperidin-4-yl)-1-oxopropan-2-yl)-N-(2-octyldodecyl)undecanamide] | stronger bioluminescence signals than MC3-LNP-SamRNA-Luc
CCCCCCCCCCCC(=O)N(CC(CCCCCCCC)CCCCCCCCCC)C(CC1CCN(C)CC1)C(=O)NC1CCCCCC1 (centres unmarked) [P40C10, N-(1-(cycloheptylamino)-3-(1-methylpiperidin-4-yl)-1-oxopropan-2-yl)-N-(2-octyldodecyl)dodecanamide] | stronger bioluminescence signals than MC3-LNP-SamRNA-Luc
CCCCCCCCCCCC(=O)N(C(CCCCCCCCCCC)CCCCCCCCCCC)C(CC1CCN(C)CC1)C(=O)NC1CCCCCC1 (centres unmarked) [P40C11, N-(1-(cycloheptylamino)-3-(1-methylpiperidin-4-yl)-1-oxopropan-2-yl)-N-(tricosan-12-yl)dodecanamide] | stronger bioluminescence signals than MC3-LNP-SamRNA-Luc
CCCCCCCCCCCCCCC(=O)N(C(CCCCCCC)CCCCCCC)C(CC1CCN(C)CC1)C(=O)NC1CCCCCC1 (centres unmarked) [P40D7, N-(1-(cycloheptylamino)-3-(1-methylpiperidin-4-yl)-1-oxopropan-2-yl)-N-(pentadecan-8-yl)pentadecanamide] | stronger bioluminescence signals than MC3-LNP-SamRNA-Luc
CCCCCCCCCCCCC(=O)N(CC(CCCCCCCCCC)CCCCCCCCCCCC)C(CC1CCN(C)CC1)C(=O)NC(C)(C)C (centres unmarked) [P51C12, N-(1-(tert-butylamino)-3-(1-methylpiperidin-4-yl)-1-oxopropan-2-yl)-N-(2-decyltetradecyl)tridecanamide] | stronger bioluminescence signals than MC3-LNP-SamRNA-Luc
CCCCCCCCCCCC(CCCCCCCCCCC)N(C(=O)CCCCCCCCC)C(C(=O)NC(C)(C)C)C1CCN(CC)CC1 (centres unmarked) [P53A5, N-(2-(tert-butylamino)-1-(1-ethylpiperidin-4-yl)-2-oxoethyl)-N-(tricosan-12-yl)decanamide] | stronger bioluminescence signals than MC3-LNP-SamRNA-Luc
CCCCCCCCCCCCC(CCCCCCCCCC)CN(C(=O)CCCCCCCCC)C(C(=O)NC(C)(C)C)C1CCN(CC)CC1 (centres unmarked) [P53A6, N-(2-(tert-butylamino)-1-(1-ethylpiperidin-4-yl)-2-oxoethyl)-N-(2-decyltetradecyl)decanamide] | stronger bioluminescence signals than MC3-LNP-SamRNA-Luc
CCCCCCCCCCCCC(CCCCCCCCCC)CN(C(=O)CCCCCCCCCC)C(C(=O)NC12CC3CC(CC(C3)C1)C2)C1CCN(CC)CC1 (centres unmarked) [P54B6, N-(2-(((1s,3s)-adamantan-1-yl)amino)-1-(1-ethylpiperidin-4-yl)-2-oxoethyl)-N-(2-decyltetradecyl)undecanamide] | stronger bioluminescence signals than MC3-LNP-SamRNA-Luc
CCCCCCCCCCCCCCCC(=O)N(C(CCCCCCC)CCCCCCC)C(C(=O)NC12CC3CC(CC(C3)C1)C2)C1CCN(CC)CC1 (centres unmarked) [P56A1, N-(2-(((1s,3s)-adamantan-1-yl)amino)-1-(1-ethylpiperidin-4-yl)-2-oxoethyl)-N-(pentadecan-8-yl)palmitamide] | stronger bioluminescence signals than MC3-LNP-SamRNA-Luc
CCCCCCCCCCCCCCCCC(=O)N(C(CCCCCCC)CCCCCCC)C(C(=O)NC12CC3CC(CC(C3)C1)C2)C1CCN(CC)CC1 (centres unmarked) [P56B1, N-(2-(((1s,3s)-adamantan-1-yl)amino)-1-(1-ethylpiperidin-4-yl)-2-oxoethyl)-N-(pentadecan-8-yl)heptadecanamide] | stronger bioluminescence signals than MC3-LNP-SamRNA-Luc
